Source: ChEMBL document CHEMBL1146067, “Free radical scavenging and antioxidant activities of substituted hexahydropyridoindoles. Quantitative structure-activity relationships” (J Med Chem, 2006)

System: Radical scavenging activity
Experiment: Antioxidant activity in unilamellar DOPC liposomes
Format: functional, subcellular, Liposome

| SMILES | Log IC50 |
| --- | --- |
| COc1ccc2c(c1)[C@H]1CN(C)CC[C@H]1N2 | -4.48 |
| Cc1cc2c(c([N+](=O)[O-])c1)N[C@H]1CCN(C)C[C@@H]21 (racemic) | -4.58 |
| Cc1c(Br)cc2c(c1C)N[C@H]1CCN(C(=O)OCc3ccccc3)C[C@@H]21 (racemic) | -5.53 |
| Cc1cc(C)c2c(c1)[C@@H]1CN(C(=O)OCc3ccccc3)CC[C@@H]1N2 (racemic) | -5.36 |
| Cc1cc(N)c2c(c1)[C@@H]1CN(C)CC[C@@H]1N2 (racemic) | -4.9 |
| COc1ccc2c(c1)[C@@H]1CN(C(=O)OCc3ccccc3)CC[C@@H]1N2 (racemic) | -5.49 |
| CN1CC[C@@H]2Nc3ccc(O)cc3[C@@H]2C1 (racemic) | -4.68 |
| COc1cc(C)c2c(c1)[C@@H]1CN(C(=O)OCc3ccccc3)CC[C@@H]1N2 (racemic) | -5.29 |
| Cc1cc(Br)c2c(c1)[C@@H]1CN(C)CC[C@@H]1N2 (racemic) | -4.8 |
| Cc1cc2c(c(N(C)C)c1)N[C@H]1CCN(C)C[C@@H]21 (racemic) | -4.66 |
| COc1ccc2c(c1)[C@@H]1CN(C(=O)OC(C)(C)C)CC[C@@H]1N2 (racemic) | -5.12 |
| Cc1ccc2c(c1)[C@H]1CN(C)CC[C@H]1N2 [STOBADINE] | -4.6 |

Further lines, results first:

| Log IC50 | SMILES |
| --- | --- |
| -5.48 | COc1c(C)cc2c(c1C)[C@@H]1CN(C(=O)OCc3ccccc3)CC[C@@H]1N2 (racemic) |
| -5.35 | CCCCOC(=O)N1CC[C@@H]2Nc3cc(C)c(OC)c(C)c3[C@@H]2C1 (racemic) |
| -5.19 | COc1c(C)cc2c(c1C)[C@@H]1CN(C(=O)OCC(C)C)CC[C@@H]1N2 (racemic) |
| -4.7 | CCOC(=O)N1CC[C@@H]2Nc3cc(C)c(OC)c(C)c3[C@@H]2C1 (racemic) |
| -4.71 | COC(=O)N1CC[C@@H]2Nc3c(Br)c(C)c(OC)c(C)c3[C@@H]2C1 (racemic) |
| -4.71 | COC(=O)N1CC[C@@H]2Nc3cc(C)c(OC)c(C)c3[C@@H]2C1 (racemic) |
| -5.16 | CCCOC(=O)N1CC[C@@H]2Nc3cc(C)c(OC)c(C)c3[C@@H]2C1 (racemic) |
